Values quoted from earlier work as cited in patent publication US11135320B2, “Radioligands for pretargeted pet imaging and methods of their therapeutic use” (priority 2015, dated 2021).
Read-outs that look alike come from different tables or passages of the source.

Tested on: subcutaneous SW1222 xenografts (A33 antigen-expressing human colorectal carcinoma)
Conditions: 24 h accumulation interval, Zeglis 2013, cited from earlier work

O=C([O-])CN1CCN(CC(=O)[O-])CC(Cc2ccc(NC(=O)CCCC(=O)NCc3ccc(-c4nncnn4)cc3)cc2)N(CC(=O)[O-])CC1.[64Cu+2] (stereo not drawn) [^64Cu-Tz-NOTA]
Blood activity concentration (1 h p.i.): 3.47 ± 0.63 % ID/g | Bone activity concentration (1 h p.i.): 0.3 ± 0.16 % ID/g | Heart activity concentration (1 h p.i.): 1.09 ± 0.18 % ID/g | Kidney activity concentration (1 h p.i.): 1.3 ± 0.15 % ID/g | Large Intestine activity concentration (1 h p.i.): 13.29±3.15 % ID/g | Liver activity concentration (1 h p.i.): 2.19 ± 0.25 % ID/g | Lung activity concentration (1 h p.i.): 1.58 ± 0.46 % ID/g | Muscle activity concentration (1 h p.i.): 0.22 ± 0.04 % ID/g | Small Intestine activity concentration (1 h p.i.): 0.03 ± 0.04 % ID/g | Spleen activity concentration (1 h p.i.): 0.63 ± 0.07 % ID/g | Stomach activity concentration (1 h p.i.): 0.45 ± 0.08 % ID/g | Tumor activity concentration (1 h p.i.): 4.07 ± 0.25 % ID/g | Tumor/Blood activity concentration ratio (1 h p.i.): 1.17 ± 0.22 | Tumor/Bone activity concentration ratio (1 h p.i.): 13.72 ± 7.63 | Tumor/Heart activity concentration ratio (1 h p.i.): 3.75 ± 0.65 | Tumor/Kidney activity concentration ratio (1 h p.i.): 3.14 ± 0.41 | Tumor/Large Intestine activity concentration ratio (1 h p.i.): 0.31 ± 0.08 | Tumor/Liver activity concentration ratio (1 h p.i.): 1.86 ± 0.24 | Tumor/Lung activity concentration ratio (1 h p.i.): 2.57 ± 0.76 | Tumor/Muscle activity concentration ratio (1 h p.i.): 18.42 ± 3.71 | Tumor/Small Intestine activity concentration ratio (1 h p.i.): 119.52 ± 148.82 | Tumor/Spleen activity concentration ratio (1 h p.i.): 6.46 ± 0.81 | Tumor/Stomach activity concentration ratio (1 h p.i.): 8.96 ± 1.7 | Blood activity concentration (4 h p.i.): 2.61 ± 0.83 % ID/g | Bone activity concentration (4 h p.i.): 0.27 ± 0.24 % ID/g | Heart activity concentration (4 h p.i.): 0.91 ± 0.27 % ID/g | Kidney activity concentration (4 h p.i.): 0.95 ± 0.31 % ID/g | Large Intestine activity concentration (4 h p.i.): 9.43 ± 4.22 % ID/g | Liver activity concentration (4 h p.i.): 1.26 ± 0.3 % ID/g | Lung activity concentration (4 h p.i.): 1.6 ± 0.39 % ID/g | Muscle activity concentration (4 h p.i.): 0.14 ± 0.03 % ID/g | Small Intestine activity concentration (4 h p.i.): 0.38 ± 0.08 % ID/g | Spleen activity concentration (4 h p.i.): 0.51 ± 0.22 % ID/g | Stomach activity concentration (4 h p.i.): 0.25 ± 0.12 % ID/g | Tumor activity concentration (4 h p.i.): 4.09±0.61 % ID/g | Tumor/Blood activity concentration ratio (4 h p.i.): 1.57 ± 0.55 | Tumor/Bone activity concentration ratio (4 h p.i.): 14.95 ± 13.2 | Tumor/Heart activity concentration ratio (4 h p.i.): 4.51 ± 1.49 | Tumor/Kidney activity concentration ratio (4 h p.i.): 4.32 ± 1.56 | Tumor/Large Intestine activity concentration ratio (4 h p.i.): 0.43 ± 0.2 | Tumor/Liver activity concentration ratio (4 h p.i.): 3.23 ± 0.9 | Tumor/Lung activity concentration ratio (4 h p.i.): 2.55 ± 0.73 | Tumor/Muscle activity concentration ratio (4 h p.i.): 29.38 ± 8.5 | Tumor/Small Intestine activity concentration ratio (4 h p.i.): 10.83 ± 2.8 | Tumor/Spleen activity concentration ratio (4 h p.i.): 7.97 ± 3.57 | Tumor/Stomach activity concentration ratio (4 h p.i.): 16.17 ± 8.21 | Blood activity concentration (12 h p.i.): 2.31 ± 0.4 % ID/g | Bone activity concentration (12 h p.i.): 0.35 ± 0.11 % ID/g | Heart activity concentration (12 h p.i.): 0.92 ± 0.14 % ID/g | Kidney activity concentration (12 h p.i.): 0.91 ± 0.29 % ID/g | Large Intestine activity concentration (12 h p.i.): 2.92 ± 1.34 % ID/g | Liver activity concentration (12 h p.i.): 0.93 ± 0.23 % ID/g | Lung activity concentration (12 h p.i.): 1.09 ± 0.38 % ID/g | Muscle activity concentration (12 h p.i.): 0.16 ± 0.02 % ID/g | Small Intestine activity concentration (12 h p.i.): 0.77 ± 0.51 % ID/g | Spleen activity concentration (12 h p.i.): 0.59 ± 0.25 % ID/g | Stomach activity concentration (12 h p.i.): 0.52 ± 0.64 % ID/g | Tumor activity concentration (12 h p.i.): 4.20 ± 0.84 % ID/g | Tumor/Bone activity concentration ratio (12 h p.i.): 11.98 ± 4.51 | Tumor/Heart activity concentration ratio (12 h p.i.): 4.58 ± 1.16 | Tumor/Kidney activity concentration ratio (12 h p.i.): 4.6 ± 1.71 | Tumor/Large Intestine activity concentration ratio (12 h p.i.): 1.44±0.72 | Tumor/Liver activity concentration ratio (12 h p.i.): 4.53 ± 1.45 | Tumor/Lung activity concentration ratio (12 h p.i.): 3.87 ± 1.55 | Tumor/Small Intestine activity concentration ratio (12 h p.i.): 5.46 ± 3.81 | Tumor/Spleen activity concentration ratio (12 h p.i.): 7.1 ± 3.34 | Tumor/Stomach activity concentration ratio (12 h p.i.): 8.12 ± 10.12 | Blood activity concentration (24 h p.i.): 2.07 ± 0.49 % ID/g | Bone activity concentration (24 h p.i.): 0.29 ± 0.07 % ID/g | Heart activity concentration (24 h p.i.): 0.82 ± 0.21 % ID/g | Kidney activity concentration (24 h p.i.): 0.7 ± 0.19 % ID/g | Large Intestine activity concentration (24 h p.i.): 1.67 ± 0.88 % ID/g | Liver activity concentration (24 h p.i.): 1.07 ± 0.15 % ID/g | Lung activity concentration (24 h p.i.): 1.03 ± 0.31 % ID/g | Muscle activity concentration (24 h p.i.): 0.15 ± 0.02 % ID/g | Small Intestine activity concentration (24 h p.i.): 0.35 ± 0.04 % ID/g | Spleen activity concentration (24 h p.i.): 0.45 ± 0.11 % ID/g | Stomach activity concentration (24 h p.i.): 0.16 ± 0.03 % ID/g | Tumor activity concentration (24 h p.i.): 3.94 ± 0.92 % ID/g | Tumor/Blood activity concentration ratio (24 h p.i.): 1.9 ± 0.63 | Tumor/Bone activity concentration ratio (24 h p.i.): 13.43 ± 4.5 | Tumor/Heart activity concentration ratio (24 h p.i.): 4.82 ± 1.69 | Tumor/Kidney activity concentration ratio (24 h p.i.): 5.61 ± 1.98 | Tumor/Large Intestine activity concentration ratio (24 h p.i.): 2.36 ± 1.37 | Tumor/Liver activity concentration ratio (24 h p.i.): 3.69 ± 1.01 | Tumor/Lung activity concentration ratio (24 h p.i.): 3.83 ± 1.45 | Tumor/Muscle activity concentration ratio (24 h p.i.): 26.98 ± 7.41 | Tumor/Small Intestine activity concentration ratio (24 h p.i.): 11.4 ± 2.91 | Tumor/Spleen activity concentration ratio (24 h p.i.): 8.79 ± 2.98 | Tumor/Stomach activity concentration ratio (24 h p.i.): 24.29 ± 6.89
